Measured values published in US11952611B2, “Methods and systems for detection of antibiotic resistance” (Laboratory Corporation of America Holdings, priority 2017, dated 2024).

What was measured:
Type in all cases: cell-based, Staphylococcus aureus
BAA-1720 MRSA = assay: MRSA detection from Copan e-Swabs (Table 3)
Experimental: Bacterial strains were serially diluted and Copan e-Swabs™ were inoculated with 100 μL of LB with approximately the target number of cells of 1000 CFU, 500 CFU, 250 CFU, 125 CFU, 63 CFU, 31 CFU, 16 CFU, or 8 CFU. Swabs were then eluted in 1 mL modified Amies solution (included with commercially available Copan e-Swabs™). 135 μL of this solution was added to each well of a 96-well plate. 15 μL of cefoxitin was added to the wells to reach a final concentration of 1.8 μg/mL, 3.6 μg/mL, or 5.4 μg/mL. The plate was then sealed and incubated at 37° C. for 2 hours. 10 μL of recombinant phage (1.6×10^8 pfu/mL) was added to each well. The plate was then re-sealed and incubated at 37° C. for an additional 2 hours. A master mix was made containing 15 μL 5× lysis buffer, 50 μL luciferase assay buffer, and 1 μL luciferase substrate per well. 65 μL of master mix was added to each well. Luminescence from the reactions was read on a GLOMAX® Navigator and relative luminal units (RLU) for each reaction were plotted and analyzed. RLU values three times greater than an established background RLU level for modified Amies solution (>1500 RLU) were considered positive. The results, shown in Table 3, indicate that a positive MRSA determination was made with 17 CFU in a well, originating from approximately 125 CFU on a swab when incubated with the previously established cut-off of 1.8 μg/mL. Positive results are in bold.

12600 - MSSA = assay: Table 6, MSSA alone
Experimental: (§1) Bacterial strains were serially diluted and transferred to a 96-well plate at 135 μL per well. 15 μL of cefoxitin was added to the wells to reach a final concentration of 1.8 μg/mL. The plate was then sealed and incubated at 37° C. for 2 hours or 3 hours. 10 μL of recombinant phage (1.6×10^8 pfu/mL) was added to each well. The plate was then re-sealed and incubated at 37° C. for an additional 1 or 2 hours. A master mix was made containing 15 μL 5× lysis buffer, 50 μL luciferase assay buffer, and 1 μL luciferase substrate per well. 65 μL of master mix was added to each well. Luminescence from the reactions was read on a GLOMAX® Navigator and relative luminal units (RLU) for each reaction were plotted and analyzed. RLU values three times greater than an established background RLU level for LB (>750 RLU) were considered positive. The results, shown in Table 6, indicate that samples with MRSA (38 CFU) can be distinguished from samples containing MSSA (up to 5088 CFU) using a 3-hour antibiotic/1-hour phage incubation protocol. Positive results are in bold. In Table 6, CFU values (318 CFU and 156 CFU) were experimentally validated by direct plating.

BAA-1720 - MRSA = assay: Table 6, MRSA alone; settings: MSSA detected CFU 0, MRSA 38
Experimental: as §1

MSSA = assay: Recombinant phage luciferase assay, oxacillin vs cefoxitin (Table 1), MSSA strains
Experimental: Bacterial strains were serially diluted to approximately 1×10^3 CFU/mL and transferred to a 96-well plate at 135 μL per well. 15 μL of oxacillin or cefoxitin were added to the wells to reach a final concentration of 1.0 μg/mL or 2.0 μg/mL of oxicillin or 2.0 μg/mL, 4.0 μg/mL, 8.0 μg/mL, or 10.0 μg/mL of cefoxitin. The plate was then sealed and incubated at 37° C. for 2 hours. 10 μL of recombinant phage (1.6×10^8 pfu/mL) was added to each well. The plate was then re-sealed and incubated at 37° C. for 2 hours. A master mix was made containing 15 μL 5× lysis buffer, 50 μL luciferase assay buffer, and 1 μL luciferase substrate per well. 65 μL of master mix was added to each well. Luminescence from the reactions was read on a GLOMAX® Navigator and relative luminal units (RLU) for each reaction were analyzed. RLU values three times greater than an established background RLU level for LB (>750 RLU) were considered positive. The results, shown in Table 1, indicate that the recombinant phage are capable of detecting the tested bacterial strains.

[1] = target swab CFU 8, detected CFU 1
[2] = target swab CFU 16, detected CFU 1
[3] = target swab CFU 31, detected CFU 1
[4] = target swab CFU 63, detected CFU 9
[5] = target swab CFU 125, detected CFU 17
[6] = target swab CFU 250, detected CFU 41
[7] = target swab CFU 500, detected CFU 72
[8] = target swab CFU 1000, detected CFU 136
[9] = MSSA detected CFU 10176, MRSA 0
[10] = strain 12600 MSSA, detected CFU 389
[11] = strain AR0484 MSSA, detected CFU 153
[12] = strain AR0488 MSSA, detected CFU 285
[13] = strain AR0491 MSSA, detected CFU 300

## CO[C@@]1(NC(=O)Cc2cccs2)C(=O)N2C(C(=O)O)=C(COC(N)=O)CS[C@@H]21 [Cefoxitin, cefoxitin]
BAA-1720 MRSA; [1]
  Cefoxitin (RLU) 1.8 ug/mL: 559 RLU
  Cefoxitin (RLU) 3.6 ug/mL: 429 RLU
  Cefoxitin (RLU) 5.4 ug/mL: 336 RLU
BAA-1720 MRSA; [2]
  Cefoxitin (RLU) 1.8 ug/mL: 1179 RLU
  Cefoxitin (RLU) 3.6 ug/mL: 470 RLU
  Cefoxitin (RLU) 5.4 ug/mL: 551 RLU
BAA-1720 MRSA; [3]
  Cefoxitin (RLU) 1.8 ug/mL: 880 RLU
  Cefoxitin (RLU) 3.6 ug/mL: 558 RLU
  Cefoxitin (RLU) 5.4 ug/mL: 1405 RLU
BAA-1720 MRSA; [4]
  Cefoxitin (RLU) 1.8 ug/mL: 1280 RLU
  Cefoxitin (RLU) 3.6 ug/mL: 1568 RLU
  Cefoxitin (RLU) 5.4 ug/mL: 1286 RLU
BAA-1720 MRSA; [5]
  Cefoxitin (RLU) 1.8 ug/mL: 2512 RLU
  Cefoxitin (RLU) 3.6 ug/mL: 1337 RLU
  Cefoxitin (RLU) 5.4 ug/mL: 2501 RLU
BAA-1720 MRSA; [6]
  Cefoxitin (RLU) 1.8 ug/mL: 3766 RLU
  Cefoxitin (RLU) 3.6 ug/mL: 4022 RLU
  Cefoxitin (RLU) 5.4 ug/mL: 3374 RLU
BAA-1720 MRSA; [7]
  Cefoxitin (RLU) 1.8 ug/mL: 11590 RLU
  Cefoxitin (RLU) 3.6 ug/mL: 7112 RLU
  Cefoxitin (RLU) 5.4 ug/mL: 7648 RLU
BAA-1720 MRSA; [8]
  Cefoxitin (RLU) 1.8 ug/mL: 23820 RLU
  Cefoxitin (RLU) 3.6 ug/mL: 17540 RLU
  Cefoxitin (RLU) 5.4 ug/mL: 18400 RLU
12600 - MSSA; MSSA detected CFU 156, MRSA 0
  2 HR AB + 2 HR Phage 1.8 ug/mL: 423 RLU
  3 HR AB + 1 HR Phage 1.8 ug/mL: 196 RLU
12600 - MSSA; MSSA detected CFU 318, MRSA 0
  2 HR AB + 2 HR Phage 1.8 ug/mL: 608 RLU
  3 HR AB + 1 HR Phage 1.8 ug/mL: 231 RLU
12600 - MSSA; MSSA detected CFU 636, MRSA 0
  2 HR AB + 2 HR Phage 1.8 ug/mL: 956 RLU
  3 HR AB + 1 HR Phage 1.8 ug/mL: 275 RLU
12600 - MSSA; MSSA detected CFU 1272, MRSA 0
  2 HR AB + 2 HR Phage 1.8 ug/mL: 1685 RLU
  3 HR AB + 1 HR Phage 1.8 ug/mL: 321 RLU
12600 - MSSA; MSSA detected CFU 2544, MRSA 0
  2 HR AB + 2 HR Phage 1.8 ug/mL: 4715 RLU
  3 HR AB + 1 HR Phage 1.8 ug/mL: 621 RLU
12600 - MSSA; MSSA detected CFU 5088, MRSA 0
  2 HR AB + 2 HR Phage 1.8 ug/mL: 8583 RLU
  3 HR AB + 1 HR Phage 1.8 ug/mL: 901 RLU
12600 - MSSA; [9]
  2 HR AB + 2 HR Phage 1.8 ug/mL: 16340 RLU
  3 HR AB + 1 HR Phage 1.8 ug/mL: 1098 RLU
BAA-1720 - MRSA
  2 HR AB + 2 HR Phage 1.8 ug/mL: 4218 RLU
  3 HR AB + 1 HR Phage 1.8 ug/mL: 3136 RLU
MSSA; 2 ug/mL
  detection after incubation with cefoxitin: selective loss of MSSA detection
  susceptibility of MSSA strains: susceptible
MSSA; [10]
  Cefoxitin (RLU) 2 ug/mL: 797 RLU
  Cefoxitin (RLU) 4 ug/mL: 475 RLU
  Cefoxitin (RLU) 8 ug/mL: 332 RLU
  Cefoxitin (RLU) 10 ug/mL: 277 RLU
MSSA; [11]
  Cefoxitin (RLU) 2 ug/mL: 227 RLU
  Cefoxitin (RLU) 4 ug/mL: 195 RLU
  Cefoxitin (RLU) 8 ug/mL: 197 RLU
  Cefoxitin (RLU) 10 ug/mL: 204 RLU
MSSA; [12]
  Cefoxitin (RLU) 2 ug/mL: 254 RLU
  Cefoxitin (RLU) 4 ug/mL: 220 RLU
  Cefoxitin (RLU) 8 ug/mL: 213 RLU
  Cefoxitin (RLU) 10 ug/mL: 229 RLU
MSSA; [13]
  Cefoxitin (RLU) 2 ug/mL: 207 RLU
  Cefoxitin (RLU) 4 ug/mL: 234 RLU
  Cefoxitin (RLU) 8 ug/mL: 187 RLU
  Cefoxitin (RLU) 10 ug/mL: 191 RLU
